{"source": "patent US6500819B2", "about": "“Bicyclolactam compounds, use thereof and intermediates for preparing thereof” (Taiho Pharmaceutical Company Limited, priority 1994, dated 2002)", "key": {"ddY mice [1]": {"test_system": "ddY mice", "assay": "Effect on central nervous system depressant: ethanol enhancing method, first part", "conditions": "mouse, in vivo, po, 300 mg/kg", "procedure": "(§1) Effect On Central Nervous System Depressant\nb. Ethanol Enhancing Method\n(§2) Compound 3, Compound 13, diazepam or buspirone was suspended in a 0.5 % sodium carboxymethyl cellulose solution, and the suspension was orally administered to 3- to 4-week-old male ddY mice (in groups of 6) in a volume of 10 ml/kg one hour before the start of experiment.\nThe test was conducted with reference to a method described in Japan. J. Pharmacol., 49, 337˜349(1989). More specifically, the group of mice were intraperitoneally given 25 % ethanol at a dose of 20 ml/kg and checked for the time interval between loss and recovery of the righting reflex."}, "ddY mice [2]": {"test_system": "ddY mice", "assay": "Anticonvulsant effect (pentylenetetrazol-induced convulsion method), first part", "format": "in vivo", "conditions": "oral, dose of 300 mg/kg", "procedure": "Anticonvulsant Effect (Pentylenetetrazol-Induced Convulsion Method)\nas §2\nThe test was conducted with reference to a method described in “Evaluation of Medicinal Efficacies (1), Pharmacological Test Method (1), Basic lectures on Development of Pharmaceuticals,” 167˜172(1971)."}, "Wistar rats": {"test_system": "Wistar rats", "assay": "Anticonflict test (first part, Test Example 1)", "format": "in vivo", "conditions": "for Frequency of water drinking behavior: 1 h before test, value relative to control = 100", "procedure": "Wistar rats (males weighing 140 to 160 g) were used for experiment in groups of 11 to 14.\nThe test compound, diazepam or buspirone was suspended in a 0.5 % sodiumn carboxymethyl cellulose solution, and the suspension was orally given to the animal in a volume of 5 mnl/kg one hour before the start of experiment.\nWith reference to a method described in “Process in Anxiolytics and Antidepresants,” ediled by Showa Ueki and Tatsuo Furukawa, Ishiyaku Shuppansha, 56-59 (1981) , the agents were tested using experimental boxes having a grid floor and a metal drinking tube in the floor. No water was supplied to the rats for 48 hours before the experiment. Upon lapse of first 24 hours, each group of rats were placed into the experimental box, permitted access to water for 30 seconds and caused to recognize the metal drinking tube. Upon lapse of further 24 hours with access to water prevented, the rats were placed into the box again and permitted access to water on condition that an electric current was passed between the metal drinking tube and the grid to give an electroshock for every 20 times of water drinking behavior to measure the frequency of water drinking behavior for 3 minutes.\nThe frequency is expessed by a value relative to the frequency of the control which is taken as 100."}, "ddY mice [3]": {"test_system": "ddY mice", "assay": "Muscle relaxant effect (traction method), first part", "conditions": "mouse, in vivo, po, 300 mg/kg", "procedure": "Muscle Relaxant Effect (Traction Method)\n(§3) Compound 3, Compound 13, diazepam or buspirone was suspended in a 0.5 % sodium carboxymethyl cellulose solution, and the suspension was orally administered to 3- to 4-week-old male ddY mice (in groups of 5) in a volume of 10 ml/kg one hour before the start of experiment.\nWith reference to a method described in Japan. J. Pharmacol., 49. 337˜349(1989), the foreleg of the mouse was hung on a horizontal wire, having a diameter of 1.2 mm and fixed at a level of 30 cm, three times consecutively. […] Thus, ED5 0 was determined for evaluation. […] Diazepam and buspirone were 2.2 mg/kg and 427.8 mg/kg, respectively, in ED5 0."}, "ddY mice [4]": {"test_system": "ddY mice", "assay": "Sedative effect (spontaneous locomotor activity), first part", "conditions": "mouse, in vivo, po, 300 mg/kg", "procedure": "Sedative Effect (Spontaneous Locomotor Activity)\nas §3\nThe test was conducted with reference to a method described in “Evaluation of Medicinal Efficacies (1), Pharmacological Test Method (1), Basic Lectures on Development of Pharmaceuticals,” 50˜54(1971). More specifically, the group of mice were given the test drug and thereafter measured the amount of spontaneous locomotor activity for 10 minutes per mouse rising Animex MK-110 (product of Muromachi Kikai Co., Ltd.)."}, "ddY mice [5]": {"test_system": "ddY mice", "assay": "Acute toxicity test (LD50), first part", "format": "in vivo", "conditions": "oral, male ddY mice, observed for 3 days"}, "ddY mice [6]": {"test_system": "ddY mice", "assay": "Effect on central nervous system depressant: pentobarbital anesthetic method", "conditions": "oral, mice; pentobarbital 40 mg/kg i.p.", "procedure": "as §1\na. Pentobarbital Anesthetic Method\nCompound 3, Compound 13, diazepam or buspirone was suspended in a 0.5 % sodium carboxymethyl cellulose solution, and the suspension was orally administered to 3- to 4-week-old male ddY mice (in groups of 5 to 10) in a volume of 10 ml/kg one hour before the start of experiment.\nThe test was conducted with reference to a method described in “Evaluation of Medicinal Efficacies (1), Pharmacological Test Method (1), Basic lectures on Development of Pharmaceuticals,” 144˜145(1971). More specifically, the group of mice were intraperitoneally given pentobarbital at a dose of 40 mg/kg and checked for sleeping time."}}, "data": [{"smiles": "COc1ccc(C(=O)N2C(=O)CCC3C(O)CCC32)cc1", "note": "(centres unmarked) [Compound 13, γ-6,c-7-Hydroxy-2-(4-methoxybenzoyl)-2-azabicyclo-[4.3.0]nonan-3-one]", "values": [{"measurement": "Ethanol enhancing effect (in words)", "setting": "ddY mice [1]", "result": "no ethanol enhancing effect"}, {"measurement": "Anticonvulsant effect (in words)", "setting": "ddY mice [2]", "result": "no anticonvtilsant effect"}, {"measurement": "Frequency of water drinking behavior", "setting": "Wistar rats; dose 0.001 mg/kg oral", "result": 130, "unit": "%"}, {"measurement": "Frequency of water drinking behavior", "setting": "Wistar rats; dose 0.01 mg/kg oral", "result": 183, "unit": "%"}, {"measurement": "Frequency of water drinking behavior", "setting": "Wistar rats; dose 0.1 mg/kg oral", "result": 177, "unit": "%"}, {"measurement": "Frequency of water drinking behavior", "setting": "Wistar rats; dose 1.0 mg/kg oral", "result": 169, "unit": "%"}, {"measurement": "Anxiolytic effect in the anticonflict test (in words)", "setting": "Wistar rats; oral, compounds at doses of 0.001 to 1.0 mg/kg", "result": "increase in the frequency of water drinking behavior"}, {"measurement": "Muscle relaxant effect (in words)", "setting": "ddY mice [3]", "result": "no muscle relaxant effect"}, {"measurement": "Sedative effect (in words)", "setting": "ddY mice [4]", "result": "no sedative effect"}, {"measurement": "Acute Toxicity LD50", "setting": "ddY mice [5]", "result": "3000< mg/kg"}, {"measurement": "ED50, pentobarbital sleeping time in excess of twice control", "setting": "ddY mice [6]", "result": 224.5, "unit": "mg/kg"}]}]}
